Data taken from patent US12584903B2, “Cellular-based method for determining the potency of defibrotide” (GENTIUM S.R.L., priority 2014, dated 2026).

How the values were obtained:
[1] = system: HMEC-1 cells; test: Cell protection assay: viability of HMEC-1 cells incubated with fludarabine, MTT assay; type: cell-based, human; conditions: 72 hours
Method: The MTT assay is based on the cleavage of tetrazolium salts by mitochondrial dehydrogenase in viable cells leading to the production of an insoluble formazan dye. MTT dye, 10 μl of a 2 mg/ml solution in D-PBS, was added to each well and then the plates were incubated for 3 hours. Plates were then centrifuged and each well aspirated. The dye was solubilised with 200 μl of a mixture DMSO/Ethanol (1:1) and absorbance in the wells was read at 570-590 nm on a microplate reader. A blank well containing only media and cytotoxic drug (fludarabine or doxorubicin) was also run as a control in all experiments.
HMEC-1 cells were cultivated according to the above mentioned procedure. A cell density of 500,000 cells/ml was used for the assay. […] Defibrotide was added to the microplate well at a concentration of 100, 10 or 1 μg/ml. Four replicates of each condition were performed. The viability of the HMEC cells was assessed after 72 hours with the MTT assay described above.
HMEC-1 cells were cultivated according to the above mentioned procedure. A cell density of about 500,000 cells/ml was used for the experiment. The cytotoxic agent was fludarabine at a concentration of 50 μg/ml. Synthetic oligonucleotides (Adenine-Cytosine (AC) of about 16 kDa or Adenine-Cytosine-Guanine-Thymine (ACGT) of about 17 kDa) or defibrotide were added to each well at varying concentrations. Specifically, the AC oligonucleotides were added to each well at a concentration of 1, 10, 100 or […], whereas the ACGT oligonucleotides were added to each well at a concentration of 12.5, 25 or 50 μg/ml. […] Each treatment condition was performed in triplicate. The viability was assessed with the MTT assay after 24, 48 and 72 hours.

[2] = system: SK-HEP-1 cells; test: Cell protection assay: viability of SK-HEP-1 cells incubated with doxorubicin, CCK-8 assay; type: cell-based, human; conditions: doxorubicin 0.1 μg/ml, defibrotide 50 μg/ml or greater, 72 hours
Method: The cytotoxic agent was doxorubicin at a concentration of 0.1 μg/ml. Defibrotide was added to the microplate well at a concentration of 100, 50, 20, 10, 5 or 1 μg/ml. Three replicates of each condition were performed. The viability was assessed after 72 hours with the CCK-8 assay kit as described above. […] (FIG. 2).

[3] = system: SK-HEP-1 cells; test: Cell protection assay: viability of SK-HEP-1 cells incubated with fludarabine, CCK-8 assay, 4-parameter logistic potency analysis; conditions: fludarabine 10 μg/ml, 72 hours
Method: The human liver sinusoidal endothelial cell line SK-HEP-1 was obtained from the American Type Culture Collection (ATCC) and cultured in complete EMEM medium in a humidified cell incubator containing 5% CO2 at 37° C. using gelatin-coated tissue culture flasks. The cells were sub-cultured by trypsin mediated detachment every 2-3 days following the instructions provided by the ATCC. Cells were serially transferred into culture flasks when the culture was 80-90% confluent and used for the protection assay between passages +3 to +10. That is, 3 to 10 passages beyond the characterised passage number of the cells received from the ATCC.
A suspension of SK-HEP-1 for use in the cell protection assay was prepared and counted. […] Cells were counted using a Neubauer counting chamber in the presence of trypan blue to assess the percent viability of the cultures.
Fifty μl of the cell suspensions, or medium alone for blanks, prepared at the concentrations described above was placed in wells of a poly-D-lysine coated 96-well microtiter plate. […] Following addition of the solution to the wells, the plates were returned to the incubator and cell viability was assessed after 24, 48 or 72 hr. […]
After the specified period of incubation, cell viability in each well was measured using the CCK-8 cell counting kit (Sigma Aldrich, Milan, Italy) following the manufacturer's instructions. […]

Molecule | protection effect against fludarabine-induced cytotoxicity ([1]; fludarabine 10 μg/ml, defibrotide 100 μg/ml) | protection from fludarabine-induced cytotoxicity (in words) ([1]; fludarabine 10 μg/ml, defibrotide 100, 10 or 1 μg/ml) | protection from fludarabine-induced cytotoxicity (in words) ([1]; fludarabine 50 μg/ml, AC 1-500 μg/ml, ACGT 12.5-50 μg/ml, defibrotide 5-100 μg/ml) | protection from doxorubicin-induced cytotoxicity (in words) [2] | cells surviving ([3]; defibrotide 40 μg/ml or greater) | protection from fludarabine-induced cytotoxicity (in words) ([3]; ACGT or glutathione 1.25-80 μg/ml, tPA 10-320 IU/ml)
defibrotide | more than 50% | protected the cells from fludarabine-induced cytotoxicity in a dose-dependent manner | dose-dependent protection | significantly protected | greater than 80% | –
N[C@@H](CCC(=O)N[C@@H](CS)C(=O)NCC(=O)O)C(=O)O [glutathione, Glutathione] | – | – | – | – | – | No protection
